These results are taken from patent publication US6201116A, “Halide indicators” (The Regents of the University of California, priority 1999, dated 2001).

Data set [1] in a line: In vitro fluorescence quenching by other ions (Stern-Volmer). The class given is physicochemical. How it is done:
Computations. In vitro fluorescence quenching studies were carried out at peak excitation and emission wavelengths. Microliter aliquots of the sodium salt of the quenching anion (1 M) were added to indicator solution in 5 mM sodium phosphate (pH 7.2, unless indicated otherwise). Fluorescence intensities in the absence (Fo) and presence (F) of quencher anion ([Q]) were measured to give the Stem-Volmer constant (Kq) as defined by: Fo /F=1+Kq [Q].

Data set [2] in a line: Fluorescence lifetime in water. The class given is physicochemical. How it is done:
Time resolved fluorescence measurements. Fluorescence lifetime and anisotropy decay measurements were carried out in the frequency domain by cuvette fluorimetry using a Fourier transform fluorimeter (48000 MHF, SLM Instruments, Urbana, Ill.) or by fluorescence microscopy using epifluorescence microscope optics in place of the cuvette compartment (Verkman et al., 1991). For microscopy measurements, impulse-modulated vertically polarized light (442 nm, He--Cd laser 35 mwatts) was reflected onto the sample by a 510 nm dichroic mirror and objective lens; emitted fluorescence was filtered by a 515 nm barrier filter and passed through a rotatable analyzing calcite polarizer. In some experiments, a biconcave lens was introduced just in front of the dichroic mirror to diverge beam diameter in the focal plane to […].
Analysis of lifetime and time-resolved anisotropy was performed by a comparative approach. Generally six pairs of measurements (each acquisition 8 s) were obtained, comparing sample and reference (fluorescein in 0.1 N NaOH, lifetime 4.0 ns) for measurement of lifetime, and parallel and perpendicular orientations of the emission polarizer for measurement of anisotropy decay. […] Median phase and modulation values for paired data were analyzed by nonlinear least-squares for determination of lifetimes and rotational correlation times.

Data set [3] relates to cells. The data set can be described thus: Photobleaching in cells. Format: cell-based. The procedure:
(§1) Fluorescence microscopy. Fluorescence microscopy measurements were performed as described previously (Chao et al., 1989). Briefly, coverglasses were mounted in a 0.5 ml perfusion chamber in which the cell-free glass surface made contact with an oil immersion objective (Nikon ×40 magnification, numerical aperture[NA] 1.3). Cell fluorescence was excited at 365±10 nm (SPQ) or 420 nm±10 nm (LZQ and LMQ). Emitted fluorescence was detected by a photomultiplier in a Nikon inverted epifluorescence microscope using a 410 nm dichroic mirror and 420 nm barrier filter (SPQ) or a 455 nm dichroic mirror and 500 nm barrier filter (LZQ). For cells colabeled with SPQ and LZQ, SPQ fluorescence was excited at 365±10 nm and detected using a 410 nm dichroic mirror and 455±30 nm interference filter. Confocal fluorescence micrographs were obtained using a Nipkow wheel confocal microscope and cooled CCD camera detector using a ×60 oil immersion objective (Nikon, NA 1.4). LZQ-labeled cells were viewed using a fluorescein filter set (excitation 480±15 nm, emission 520±20 nm).
A time course of LZQ fluorescence during perfusion with physiological saline at 23° C. was generated. A small group of 20-30 cells was illuminated continuously and fluorescence was detected by a photomultiplier using an ×40, 1.3 NA objective. Cellular fluorescence decreased slowly at a rate of 2.5% per hour. To determine the relative contributions of indicator leakage vs. photobleaching to the slow decline in fluorescence, the perfused cells were illuminated intermittently. […] Background fluorescence (in non-labeled cells) was generally <5% of the fluorescence of LZQ-labeled cells.

Data set [4] deals with cells. The data set can be described thus: Response of intracellular fluorescence to osmotically-induced changes in cell volume. The class given is cell-based. The procedure:
as §1
The similar LZQ lifetime in cells and water predicts that LZQ fluorescence should be relatively insensitive to cell volume in the absence of I^-. […] When cells were exposed to hypoosmotic medium (225 mOsm), SPQ fluorescence increased by 15±2%, whereas LZQ fluorescence increased by only 4±1%.

Another data set deals with CFTR. Briefly: I^-/NO3^- exchange in forskolin-stimulated CFTR-expressing cells. The class given is cell-based. The procedure: Transport measurements. Cells were labeled with LZQ or SPQ by hypotonic shock (loading buffer/water 1:1 containing 2 mM LZQ or 7.5 mM SPQ) for 5 min at room temperature or by overnight incubation with indicators in the cell culture medium. Extracellular indicator was removed by washing just prior to measurements. For fluorescence microscopy, glass coverslips were then mounted in a perfusion chamber (flow ~2 ml/min) in which solutions were exchanged using a 4-way valve. For microplate reader measurements, cells in 96-well plates were bathed in […] of the `1st buffer` (see Table 3) and […] of the Cl^- -containing, I^- -free solution was injected into the well to drive Cl^- /I^- exchange (protocol 1). For stimulation of CFTR using protocol 2, […] of a 1:8 mixture of the 1st buffer and the 2nd buffer containing […] forskolin, 2 mM CPT-cAMP and […] IBMX was added.
For determination of the absolute I^- transport rates, the time course of intracellular [I^- ] was computed from the time course of SPQ or LZQ fluorescence using the modified Stem-Volmer equation [I^- ]={([Fo -Fb ]/[F-Fb ])-1}/KI, where Fo is fluorescence intensity in the absence of I^-, Fb is background fluorescence of unlabeled cells, and KI the intracellular quenching constant for I^- (see Results). I^- transport rates were calculated from the slope of a linear regression of the first 10 time points after changing perfusate composition.
The utility of LZQ for functional measurement of CFTR expression was tested. […] A comparison of data obtained for cells loaded with LZQ and SPQ initially loaded with I^-, followed by replacement of I^- with NO3^- in the absence of forskolin, followed by addition of forskolin was also performed. The initial rates of forskolin-stimulated I^- efflux (SPQ: 0.09±0.02 mM/s; LZQ: 0.08±0.01 mM/s) were similar. Measurements of Cl^- /NO3^- exchange were also carried out by measuring SPQ fluorescence using cells labeled with SPQ alone vs. cells colabeled with SPQ and LZQ.

`[O-]c1nc2c(N[C@@H]3O[C@H](CO)[C@@H](O)[C@H]3O)ncnc2[n+]2ccccc12` [I, 4-(β-D-ribofuranosylamino)-pyrido [2,1-h] pteridin-11-ium-5-olate]: in data set [1] (K^+), the “Stern-Volmer constant, K^+” value was less than 1 M⁻¹. In addition, the “Stern-Volmer constant, NO3^-” value in data set [1] (NO3^-) was less than 1 M⁻¹. Further, the “Stern-Volmer constant, Na^+” value in data set [1] (Na^+) was less than 1 M⁻¹. In data set [1] (acetate), the “Stern-Volmer constant, acetate” value was less than 1 M⁻¹. In addition, the “Stern-Volmer constant, phosphate” value in data set [1] (phosphate) is less than 1 M⁻¹. The same compound had a fluorescence lifetime in data set [2] (in water, absence of I^-) of 7.1 ns. Further, the “quenching mechanism (lifetime decrease with [I^-])” value in data set [2] (increasing [I^-]) is listed as “collisional mechanism”. Besides, in the data set with cells [3] (Table 4), the “Cellular properties: photobleaching” value was “slow”. Besides, the “photobleaching, intermittent vs. continuous illumination” value with cells [3] (low light level conditions) is “absence of photobleaching”. In the data set with cells [4] (225 mOsm), the “fluorescence increase upon exposure to hypoosmotic medium” value is reported as 4±1%. For the same compound, the “fluorescence change upon exposure to hyperosmotic medium” value with cells [4] (600 mOsm, absence of I^-) came out at 5±1%. For the same compound, the “initial rate of forskolin-stimulated I^- efflux” value in the data set with CFTR (I^- replaced by NO3^- without forskolin, then forskolin added) stood at 0.08 ± 0.01 mM/s. In the data set with CFTR (forskolin-stimulated CFTR-expressing cells, I^-/NO3^- exchange), the “computed I^- efflux rate” value amounted to 0.09 ± 0.03 mM/s. In addition, the “computed I^- influx rate” value in the data set with CFTR (forskolin-stimulated CFTR-expressing cells, I^-/NO3^- exchange, S.E., n=3) was 0.25 ± 0.01 mM/s.
